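A five-concentration, 48-hour dose response in 96-well plates underlies each endpoint, interpolated linearly between surrounding concentrations. GI50 marks 50% less growth.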 The source made the active and inactive calls. No stated cut-off is given here; in the data, active = GI50 up to about 1.1 µM and inactive = higher.

Some test systems named below: HOP-92; HCT-15; UACC-257; 786-0; EKVX; UACC-62; Malme-3M; A549; HOP-62; LOX IMVI; NCI/ADR-RES; SK-MEL-5; SK-MEL-28; OVCAR-8; TK-10; OVCAR-5; HCT-116; NCI-H460; SNB-75; RXF 393.
Holding throughout (experiment): DTP human tumour cell line panel, 48 h

Turning to `CN(C)CCNCCN`, the GI50 with HOP-92 is > 100 µM (inactive); in the test with HCT-15, above 100 µM; with UACC-257, > 100 µM (inactive); with 786-0, > 100 µM (inactive); in the test with EKVX, > 100 µM (inactive); in the test with UACC-62, > 100 µM (inactive). Besides, the GI50 with Malme-3M, in the test on A549, in the test with HOP-62, in the test with LOX IMVI, in the test on NCI/ADR-RES and in the test with SK-MEL-5 was > 100 µM (inactive) each time. Also, the GI50 in the test with SK-MEL-28, in the test on OVCAR-8, in the test on TK-10, with OVCAR-5, with HCT-116 and in the test on NCI-H460 was > 100 µM (inactive) each time.
Turning to `OCc1cc2c([nH]c3ccccc32)c(C(O)CO)n1` (stereo not given), the GI50 is > 100 µM (inactive) in the test with HOP-92; above 100 µM in the test on HCT-15; > 100 µM (inactive) in the test with UACC-257; > 100 µM (inactive) with 786-0; > 100 µM (inactive) in the test with EKVX; > 100 µM (inactive) in the test on UACC-62. In addition, the GI50 with Malme-3M, in the test with A549, in the test with LOX IMVI, with NCI/ADR-RES, in the test with SK-MEL-5 and with SK-MEL-28 was > 100 µM (inactive) in each case. The GI50 in the test on OVCAR-8, with TK-10, with OVCAR-5, in the test with HCT-116, in the test on NCI-H460 and in the test on SNB-75 was > 100 µM (inactive) each time.
For the compound `O=C(/C=C1\Nc2ccc([N+](=O)[O-])cc2N=C1NC12CC3CC(CC(C3)C1)C2)c1ccccc1`, the 50% growth inhibitory concentration (GI50) was above 10 µM with HCT-15; > 10 µM (inactive) in the test with UACC-257; 4.21 µM (inactive) in the test on 786-0; > 10 µM (inactive) with EKVX; > 10 µM (inactive) in the test with Malme-3M; > 10 µM (inactive) in the test with HOP-62. For the same compound, the GI50 in the test on LOX IMVI is > 10 µM (inactive); in the test on NCI/ADR-RES it was > 10 µM (inactive); in the test with RXF 393, 6.53 µM (inactive); with SK-MEL-5, > 10 µM (inactive); in the test with SK-MEL-28, > 10 µM (inactive); in the test on OVCAR-8, 9.64 µM (inactive). Moreover, the GI50 in the test with TK-10 was 9.91 µM (inactive); in the test with OVCAR-5, > 10 µM (inactive); in the test with NCI-H460 it was > 10 µM (inactive); with SNB-75, > 10 µM (inactive).
As for `CC(C)/C(Cl)=N\OC(=O)Nc1cccc(Cl)c1`, the 50% growth inhibitory concentration (GI50) in the test on HCT-15 was 16.1 µM; with UACC-257, 13.6 µM (inactive); in the test with 786-0 it was 15.7 µM (inactive); with EKVX it was 16.3 µM (inactive); in the test on UACC-62, 20.2 µM (inactive); in the test with Malme-3M it was 11.6 µM (inactive). The GI50 in the test on A549 is 18.4 µM (inactive); with HOP-62 it was > 46 µM (inactive); with LOX IMVI it was 3.72 µM (inactive); in the test with NCI/ADR-RES, 10.6 µM (inactive); in the test with RXF 393, 18.5 µM (inactive); in the test on SK-MEL-5 it was 13.5 µM (inactive). Besides, the GI50 with SK-MEL-28 was 16.9 µM (inactive); with OVCAR-8, 15.4 µM (inactive); with TK-10 it was 15.3 µM (inactive); in the test on OVCAR-5 it was 13.5 µM (inactive); in the test with HCT-116, 18.1 µM (inactive); with NCI-H460 it was 13.7 µM (inactive). In addition, the GI50 with SNB-75 was 13.9 µM (inactive).
For `CCOC(=O)c1cc2c3ccn(Cc4ccccc4)c3c3c(C)noc3c2[nH]1`, the 50% growth inhibitory concentration (GI50) in the test on HCT-15 is above 100 µM; with UACC-257 it was > 100 µM (inactive); with 786-0, > 100 µM (inactive); in the test on EKVX it was > 100 µM (inactive); with UACC-62 it was > 100 µM (inactive); with Malme-3M it was > 100 µM (inactive). The GI50 in the test on A549, in the test with HOP-62, in the test on LOX IMVI, in the test with NCI/ADR-RES, with RXF 393 and with SK-MEL-5 was > 100 µM (inactive) in each case. Also, the GI50 with SK-MEL-28, in the test on OVCAR-8, in the test on TK-10, in the test with OVCAR-5, in the test with HCT-116 and with NCI-H460 was > 100 µM (inactive) in each case. In addition, in the test on SNB-75, the GI50 was 74.6 µM (inactive).
For the compound `O=c1[nH]nc(Cc2ccccc2)n1O`, the GI50 in the test on HOP-92, in the test on UACC-257, in the test with 786-0, with EKVX, with UACC-62 and with Malme-3M was > 100 µM (inactive) in each case. Also, the GI50 in the test with A549, in the test on HOP-62, with LOX IMVI, with NCI/ADR-RES, with SK-MEL-5 and in the test on SK-MEL-28 was > 100 µM (inactive) throughout. Further, the GI50 in the test with OVCAR-8, in the test on TK-10 and in the test on HCT-116 was > 100 µM (inactive) each time.
Regarding `CCOP(=O)(OCC)OC1c2[nH]ccc2-c2cc(C(=O)OC)[nH]c2C1OC` (stereo not given), the concentration for 50% growth inhibition (GI50) was 59.3 µM in the test with HCT-15; > 100 µM (inactive) in the test on UACC-257; > 100 µM (inactive) with 786-0; > 100 µM (inactive) with EKVX; 45.8 µM (inactive) with UACC-62; > 100 µM (inactive) in the test on Malme-3M. The GI50 is > 100 µM (inactive) in the test on A549; 87.3 µM (inactive) in the test on HOP-62; > 100 µM (inactive) in the test with LOX IMVI; > 100 µM (inactive) with NCI/ADR-RES; > 100 µM (inactive) in the test on RXF 393; 38.5 µM (inactive) in the test with SK-MEL-5. In addition, the GI50 in the test with SK-MEL-28 is 82 µM (inactive); with OVCAR-8, > 100 µM (inactive); in the test on TK-10 it was 73.6 µM (inactive); with OVCAR-5, > 100 µM (inactive); in the test on HCT-116 it was > 100 µM (inactive); in the test on NCI-H460, 56.8 µM (inactive). Also, the GI50 with SNB-75 was 89.3 µM (inactive).
For the compound `O=CNCCCN1CCN(CCCNC=O)CC1`, the GI50 was > 100 µM (inactive) with HOP-92; above 100 µM with HCT-15; > 100 µM (inactive) in the test on UACC-257; > 100 µM (inactive) in the test with 786-0; > 100 µM (inactive) in the test on EKVX; > 100 µM (inactive) with UACC-62. In addition, the GI50 in the test with A549, in the test on HOP-62, with LOX IMVI, in the test with NCI/ADR-RES, in the test with SK-MEL-5 and in the test on SK-MEL-28 was > 100 µM (inactive) in each case. Also, the GI50 in the test with OVCAR-8, with TK-10, with OVCAR-5 and in the test on HCT-116 was > 100 µM (inactive) in each case.
`CCC1(c2ccc(OC)c(OC)c2)CCN2C(=O)C(O)CC21` (stereo not given): the GI50 in the test with HCT-15 is above 100 µM; in the test on UACC-257, > 100 µM (inactive); in the test with 786-0, > 100 µM (inactive); with EKVX, > 100 µM (inactive); with UACC-62, > 100 µM (inactive); in the test with A549, > 100 µM (inactive). The GI50 in the test with HOP-62, in the test with LOX IMVI, in the test with NCI/ADR-RES, with RXF 393, in the test with SK-MEL-5 and in the test on SK-MEL-28 was > 100 µM (inactive) throughout. Besides, the GI50 with TK-10, in the test with OVCAR-5, in the test with HCT-116, in the test with NCI-H460 and with SNB-75 was > 100 µM (inactive) throughout.
For the compound `COC(=O)C(=O)C(C(=O)C(=O)Nc1cccc(OC)c1)c1nc2ccc(Cl)cc2nc1O` (stereo not given), the GI50 with HOP-92 is 74.5 µM (inactive); in the test with HCT-15, above 100 µM; in the test with UACC-257, > 100 µM (inactive); with 786-0, > 100 µM (inactive); in the test on EKVX, 27.6 µM (inactive); with UACC-62, 89.3 µM (inactive). In addition, the GI50 with Malme-3M, in the test on A549, with LOX IMVI, in the test with NCI/ADR-RES, with SK-MEL-5 and in the test with SK-MEL-28 was > 100 µM (inactive) throughout. The GI50 with OVCAR-8, in the test on TK-10, in the test on OVCAR-5, in the test with HCT-116, in the test on NCI-H460 and in the test on SNB-75 was > 100 µM (inactive) throughout.
Turning to `NCCN1CCCCCc2ccccc21`, the GI50 in the test on HCT-15 is above 10 µM; with UACC-257, > 10 µM (inactive); with 786-0, > 10 µM (inactive); in the test on EKVX, > 10 µM (inactive); in the test on UACC-62 it was > 10 µM (inactive); in the test with Malme-3M, > 10 µM (inactive). For the same compound, the GI50 with A549, in the test on HOP-62, in the test with LOX IMVI, in the test on NCI/ADR-RES, in the test on RXF 393 and with SK-MEL-5 was > 10 µM (inactive) in each case. Also, the GI50 in the test on SK-MEL-28, in the test on OVCAR-8, in the test on TK-10, in the test on HCT-116, with NCI-H460 and with SNB-75 was > 10 µM (inactive) throughout.
For the compound `CC(C)=CCC/C(C)=C/Cc1c2c(c3oc(-c4ccc(O)c(O)c4)c(O)c(=O)c3c1O)C=CC(C)(C)O2`, the concentration for 50% growth inhibition (GI50) was 2.1 µM with HCT-15; 5.22 µM (inactive) in the test with UACC-257; 1.85 µM (inactive) with 786-0; 5.31 µM (inactive) in the test with UACC-62; 0.665 µM (active) with Malme-3M; 3.87 µM (inactive) in the test with A549. In addition, the GI50 in the test on HOP-62 is 4.45 µM (inactive); with NCI/ADR-RES, 5.32 µM (inactive); in the test on RXF 393, 7.71 µM (inactive); in the test with SK-MEL-5, 2.95 µM (inactive); in the test with SK-MEL-28, 4.37 µM (inactive); in the test with OVCAR-8, 2.05 µM (inactive). Besides, the GI50 was 5.24 µM (inactive) in the test on TK-10; 7.18 µM (inactive) with OVCAR-5; 2.57 µM (inactive) in the test with HCT-116; 3.37 µM (inactive) with NCI-H460; 5.22 µM (inactive) in the test with SNB-75.

(Values after ChEMBL document CHEMBL1201862, “PubChem BioAssay data set” (2004).)
